Data reported in patent EP0048954A2, “Beta-lactam compounds, process for the preparation thereof and intermediate products for the preparation thereof” (SAGAMI CHEMICAL RESEARCH CENTER, priority 1980, dated 1982).
In brackets after ≈: the same amount, converted by molar mass. Counter-ions that a name gives are not always drawn.

Tests used:
Experiment in all cases: Antibacterial activity, minimum inhibition concentration (method of The Chemotherapy Association, Japan)
Format in all cases: cell-based
Proteus morgani Kono = conditions: strain J: Proteus morgani Kono; read-out: minimum inhibition concentration
Method: (§1) Antibacterial activities of the compounds according to this invention, which had been prepared in the preceding Examples, were measured according to the method prescribed by The Committee of Amendment of "The method for measurement of the minimum inhibition concentration", The Chemotherapy Association, Japan (See Chemotherapy, Vol. 22, No. 6, pp. 1126 - 1128 (1974) and Vol. 29, No. 1, pp. 76 - 79 (1981)).
(§2) The abbreviations A to P will be used in the following Tables 2 to 8.
(§3) Test results are shown in terms of the minimum inhibition concentration (µg/mℓ.) in the following Tables 2 to 8.

Escherichia coli NIHJC-2 = conditions: Escherichia coli, NIHJC2, strain L: Escherichia coli NIHJC-2; read-out: minimum inhibition concentration
Method: as §1, §2, §3

[1] = system: Serratia marcescens IFO-3736; conditions: Serratia marcescens, IFO3736, strain F: Serratia marcescens IFO-3736; read-out: minimum inhibition concentration
Method: as §1, §2, §3

[2] = system: Enterobactor cloacae NCTC-9394; conditions: strain N: Enterobactor cloacae NCTC-9394; read-out: minimum inhibition concentration
Method: as §1, §2, §3

Serratia marcescens 1023 = conditions: Serratia marcescens, 1023, strain E: Serratia marcescens 1023; read-out: minimum inhibition concentration
Method: as §1, §2, §3

[3] = system: Pseudomonas aeruginosa NCTC-10490; conditions: Pseudomonas aeruginosa, NCTC10490, strain M: Pseudomonas aeruginosa NCTC-10490; read-out: minimum inhibition concentration
Method: as §1, §2, §3

[4] = system: Salmonella typhimurium 3173; conditions: Salmonella enterica, TYPHIMURIUM, strain D: Salmonella typhimurium 3173; read-out: minimum inhibition concentration
Method: as §1, §2, §3

Escherichia coli NIHJ = conditions: Escherichia coli, strain K: Escherichia coli NIHJ; read-out: minimum inhibition concentration
Method: as §1, §2, §3

Klebsiella pneumoniae = conditions: Klebsiella pneumoniae, strain C: Klebsiella pneumoniae; read-out: minimum inhibition concentration
Method: as §1, §2, §3

[5] = system: Citrobactor freundii NIH-10018 -68; conditions: strain O: Citrobactor freundii NIH-10018 -68; read-out: minimum inhibition concentration
Method: as §1, §2, §3

[6] = system: Staphylococcus aureus 6538-P; conditions: strain A: Staphylococcus aureus 6538-P; read-out: minimum inhibition concentration
Method: as §1, §2, §3

[7] = system: Bacillus subtilis ATCC 6633; conditions: for MIC: Bacillus subtilis, ATCC6633, strain B: Bacillus subtilis ATCC 6633, read-out: minimum inhibition concentration
Method: as §1, §2, §3

[8] = system: Proteus mirabillis B-30-2 IFO-3849; conditions: strain G: Proteus mirabillis B-30-2 IFO-3849; read-out: minimum inhibition concentration
Method: as §1, §2, §3

Proteus rettgeri NIH-96 = conditions: Providencia rettgeri, NIH96, strain I: Proteus rettgeri NIH-96; read-out: minimum inhibition concentration
Excerpt: as §2, §3

Proteus vulgaris OX-19 = conditions: Proteus vulgaris, OX19, strain H: Proteus vulgaris OX-19; read-out: minimum inhibition concentration
Excerpt: as §2, §3

Structure (SMILES)	MIC (Proteus morgani Kono) [µg/mL]	MIC (Escherichia coli NIHJC-2) [µg/mL]	MIC [1] [µg/mL]	MIC [2] [µg/mL]	MIC (Serratia marcescens 1023) [µg/mL]	MIC [3] [µg/mL]	MIC [4] [µg/mL]	MIC (Escherichia coli NIHJ) [µg/mL]	MIC (Klebsiella pneumoniae) [µg/mL]	MIC [5] [µg/mL]	MIC [6] [µg/mL]	MIC [7] [µg/mL]	MIC [8] [µg/mL]	MIC (Proteus rettgeri NIH-96) [µg/mL]	MIC (Proteus vulgaris OX-19) [µg/mL]	minimum inhibition concentration ([7]; strain B: Bacillus subtilis ATCC 6633) [µg/mL]
CC(=O)OCC1=C(C(=O)O)N2C(=O)C(NC(=O)C(=C(Cl)Cl)c3csc(NC(=O)OC(C)(C)C)n3)C2SC1 (stereo not drawn) [5-(1), 7-[2-dichloromethylene-2-(2-tert-butoxycarbonyl-aminothiazol-4-yl)acetamido]-3-acetoxymethyl-3-cephem-4-carboxylic acid]	12.5 (≈ 21.1 µM)	25 (≈ 42.1 µM)	12.5 (≈ 21.1 µM)	12.5 (≈ 21.1 µM)	25 (≈ 42.1 µM)	12.5 (≈ 21.1 µM)	12.5 (≈ 21.1 µM)	0.1 (≈ 0.169 µM)	12.5 (≈ 21.1 µM)	25 (≈ 42.1 µM)	1.56 (≈ 2.63 µM)	25 (≈ 42.1 µM)	12.5 (≈ 21.1 µM)	< 0.025	0.39 (≈ 0.657 µM)	–
CC(=O)OCC1=C(C(=O)O)N2C(=O)C(NC(=O)C(=C(Cl)Cl)c3csc(N)n3)[C@H]2SC1 (stereo partly drawn) [5-(2), 7-[2-dichloromethylene-2-(2-aminothiazol-4-yl)acetamido]-3-acetoxymethyl-3-cephem-4-carboxylic acid]	25 (≈ 50.7 µM)	12.5 (≈ 25.3 µM)	50 (≈ 101 µM)	1.56 (≈ 3.16 µM)	12.5 (≈ 25.3 µM)	6.25 (≈ 12.7 µM)	6.25 (≈ 12.7 µM)	0.1 (≈ 0.203 µM)	6.25 (≈ 12.7 µM)	6.25 (≈ 12.7 µM)	1.56 (≈ 3.16 µM)	12.5 (≈ 25.3 µM)	12.5 (≈ 25.3 µM)	< 0.025	0.2 (≈ 0.405 µM)	–
Cn1nnnc1SCC1=C(C(=O)O)N2C(=O)C(NC(=O)C(=C(Cl)Cl)c3csc(N)n3)C2SC1 (stereo not drawn) [6-(2), 7-[2-dichloromethylene-2-(2-aminothiazol-4-yl)-acetamido]-3-(l-methyl-lH-tetrazol-5-yl)thiomethyl-3-cephem-4-carboxylic acid]	6.25 (≈ 11.4 µM)	12.5 (≈ 22.8 µM)	25 (≈ 45.5 µM)	1.56 (≈ 2.84 µM)	12.5 (≈ 22.8 µM)	3.12 (≈ 5.69 µM)	6.25 (≈ 11.4 µM)	< 0.025	12.5 (≈ 22.8 µM)	6.25 (≈ 11.4 µM)	0.78 (≈ 1.42 µM)	–	12.5 (≈ 22.8 µM)	< 0.025	0.1 (≈ 0.182 µM)	6.25 (≈ 11.4 µM)
Cn1nnnc1SCC1=C(C(=O)O)N2C(=O)C(NC(=O)C(=CCl)c3csc(N)n3)C2SC1 (stereo not drawn) [11-(3), 7-[2-chloromethylene-2-(2-aminothiazol-4-yl)-acetamido]-3-(1-methyl-lH-tetrazol-5-yl)thiomethyl-3-cephem-4-carboxylic acid sodium salt]	0.2	0.78	0.78	0.2	6.25	1.56	0.78	< 0.00625	0.78	0.78	0.39	3.12	0.39	< 0.00625	0.025	–
